BindingDB's records for doi:10.1021/jm9600611 (Cytel, 1996)

Assay: Compound was tested for the inhibition of E-selectin-mediated cellular adhesion

| IC50 | SMILES |
| --- | --- |
| 1000 µM | CCO[C@@H]1O[C@@H](CO)[C@H](O)[C@H](O[C@@H]2O[C@@H](CO)[C@@H](O[C@@H]3O[C@@H](CO)[C@H](O)[C@H](O[C@]4(C(=O)O)C[C@@H](O)[C@@H](NC(C)=O)[C@H]([C@H](O)[C@H](O)CO)O4)[C@@H]3O)[C@H](O[C@@H]3O[C@@H](C)[C@@H](O)[C@H](O)[C@@H]3O)[C@@H]2NC(C)=O)[C@@H]1O [Ethyl(Sodium 5-actamido-3,5-dideoxy-alpha-D-glycero-D-galacto-nonulopyronosylonate)-(2,3)-O-(beta-D-galactopyranosyl)-(1,4)-O(alpha-L-fucopyranosyl)-(1,3)-O-[2-(N-acetylamido)-2-deoxy-beta-D-glucopyranosyl]-(1,3)-O-beta-D-galactopyranoside(N-acetyl SLex)] |
| 300 µM | CCO[C@@H]1O[C@@H](CO)[C@H](O)[C@H](O[C@@H]2O[C@@H](CO)[C@@H](O[C@@H]3O[C@@H](CO)[C@H](O)[C@H](O[C@]4(C(=O)O)C[C@@H](O)[C@@H](NC(C)=O)[C@H]([C@H](O)[C@H](O)CO)O4)[C@@H]3O)[C@H](O[C@@H]3O[C@@H](C)[C@@H](O)[C@H](O)[C@@H]3O)[C@@H]2NC(=O)c2ccccc2)[C@@H]1O [Ethyl(Sodium 5-actamido-3,5-dideoxy-alpha-D-glycero-D-galacto-nonulopyronosylonate)-(2,3)-O-(beta-D-galactopyranosyl)-(1,4)-O(alpha-L-fucopyranosyl)-(1,3)-O-[2-(benzamido)-2-deoxy-beta-D-glucopyranosyl]-(1,3)-O-beta-D-galactopyranoside] |
| 80 µM | CCO[C@@H]1O[C@@H](CO)[C@H](O)[C@H](O[C@@H]2O[C@@H](CO)[C@@H](O[C@@H]3O[C@@H](CO)[C@H](O)[C@H](O[C@]4(C(=O)O)C[C@@H](O)[C@@H](NC(C)=O)[C@H]([C@H](O)[C@H](O)CO)O4)[C@@H]3O)[C@H](O[C@@H]3O[C@@H](C)[C@@H](O)[C@H](O)[C@@H]3O)[C@@H]2NC(=O)c2ccc3ccccc3c2)[C@@H]1O [Ethyl(Sodium 5-actamido-3,5-dideoxy-alpha-D-glycero-D-galacto-nonulopyronosylonate)-(2,3)-O-(beta-D-galactopyranosyl)-(1,4)-O(alpha-L-fucopyranosyl)-(1,3)-O-[2-(2-naphthamido)-2-deoxy-beta-D-glucopyranosyl]-(1,3)-O-beta-D-galactopyranoside] |
| 2900 µM | CCO[C@@H]1O[C@@H](CO)[C@H](O)[C@H](O[C@@H]2O[C@@H](CO)[C@@H](O[C@@H]3O[C@@H](CO)[C@H](O)[C@H](O[C@]4(C(=O)O)C[C@@H](O)[C@@H](NC(C)=O)[C@H]([C@H](O)[C@H](O)CO)O4)[C@@H]3O)[C@H](O[C@@H]3O[C@@H](C)[C@@H](O)[C@H](O)[C@@H]3O)[C@@H]2NC(=O)C2CCCCC2)[C@@H]1O [Ethyl(Sodium 5-actamido-3,5-dideoxy-alpha-D-glycero-D-galacto-nonulopyronosylonate)-(2,3)-O-(beta-D-galactopyranosyl)-(1,4)-O(alpha-L-fucopyranosyl)-(1,3)-O-[2-(Cyclohexanecarboxylic acid amido)-2-deoxy-beta-D-glucopyranosyl]-(1,3)-O-beta-D-galactopyranoside] |
